Some test systems named below: COLO 205 colon; PC-3 prostate; T-47D breast; U251 CNS; HCC-2998 colon; MDA-MB-435; SK-OV-3 ovarian; SNB-75 CNS; HCT-15 colon; K-562 leukemia.
Common to all, as to assay: growth of human tumour cells (NCI), 48 h

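Protocol summary: plate cells (96-well), add compound at 5 concentrations, incubate 48 h, interpolate endpoints linearly. GI50 = concentration required for 50% inhibition of growth. Definition used: TGI = concentration required for complete inhibition of growth.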

Regarding `c1cc2cc3c4c5c(cc6ccc7cc8cc9c%10c8c8c7c6c5c8c5c%10c(c1C9N1CCOCCOCCOCCOCCOCC1)c2c45)C3` (centres undefined), the TGI in the assay with COLO 205 colon, with PC-3 prostate, with T-47D breast, in the assay on U251 CNS, with HCC-2998 colon and in the assay with MDA-MB-435 was over 100 µM each time. In addition, the TGI with SK-OV-3 ovarian, with SNB-75 CNS, in the assay with HCT-15 colon and in the assay on K-562 leukemia was over 100 µM in each case.

As for `Clc1ccc(-c2nn3c(COc4cccc(OCc5nnc6sc(-c7ccc(Cl)cc7)nn56)c4)nnc3s2)cc1`, the TGI was 82.9 µM in the assay with COLO 205 colon; over 100 µM in the assay on PC-3 prostate; 57 µM with T-47D breast; 61.3 µM with U251 CNS; 96.2 µM with HCC-2998 colon; 41.7 µM in the assay with MDA-MB-435. For the same compound, the TGI in the assay with SK-OV-3 ovarian was over 100 µM; with SNB-75 CNS, 73.5 µM; in the assay on HCT-15 colon it was over 100 µM; in the assay with K-562 leukemia it was over 100 µM.

For `Nc1ccc2c(=O)cc(-c3ccc(Br)s3)[nH]c2n1`, the TGI is over 22.1 µM in the assay on COLO 205 colon; over 100 µM in the assay with PC-3 prostate; over 100 µM in the assay with T-47D breast; over 74.4 µM in the assay on U251 CNS; 29.7 µM in the assay on HCC-2998 colon; 1.39 µM in the assay on MDA-MB-435. Further, the TGI is over 53.1 µM in the assay on SK-OV-3 ovarian, over 28.6 µM in the assay with SNB-75 CNS, over 100 µM with HCT-15 colon and over 100 µM with K-562 leukemia.

Take `O=c1cc(N2CCOCC2)n2c(ccc3ccccc32)n1`: the TGI in the assay with COLO 205 colon, in the assay on PC-3 prostate, with T-47D breast, in the assay with U251 CNS, in the assay on HCC-2998 colon and with MDA-MB-435 was over 100 µM throughout. Moreover, the TGI in the assay on SK-OV-3 ovarian, in the assay with SNB-75 CNS, with HCT-15 colon and with K-562 leukemia was over 100 µM in each case.

With `O=C1C(N2CCN(CCOCCO)CC2)=C(Cl)C(=O)c2ncccc21`, the GI50 was 19.3 µM with COLO 205 colon; over 100 µM with HCC-2998 colon; 18.5 µM in the assay with MDA-MB-435; over 100 µM in the assay with SK-OV-3 ovarian; 13.3 µM with K-562 leukemia. The TGI is 36.8 µM in the assay with COLO 205 colon; 38.9 µM with PC-3 prostate; 6.75 µM with T-47D breast; 35.9 µM with U251 CNS; over 100 µM in the assay with HCC-2998 colon; over 100 µM in the assay with SK-OV-3 ovarian. The figures for the TGI in the assay with SNB-75 CNS, with HCT-15 colon and in the assay on K-562 leukemia were over 100 µM, 37.4 µM and 34.4 µM, respectively.

In the case of `CC(=O)/C=C/c1ccccc1`, the TGI in the assay with COLO 205 colon is over 100 µM; in the assay on PC-3 prostate it was over 100 µM; in the assay with T-47D breast, over 100 µM; in the assay on U251 CNS, over 100 µM; in the assay on HCC-2998 colon, over 100 µM; in the assay with MDA-MB-435 it was 68.3 µM. Further, the TGI with SK-OV-3 ovarian, with SNB-75 CNS, with HCT-15 colon and in the assay on K-562 leukemia was over 100 µM each time.

`COc1cccc(NC(=O)CC(=O)n2nc(-c3ccccc3)c(N=Nc3ccc(Cl)cc3)c2-c2ccccc2)c1`: the TGI in the assay with COLO 205 colon is 61.6 µM; in the assay with PC-3 prostate, over 100 µM; in the assay on T-47D breast, over 100 µM; in the assay on U251 CNS, 77.9 µM; with HCC-2998 colon, 64.5 µM; with MDA-MB-435, over 100 µM. The TGI in the assay on SK-OV-3 ovarian was over 79.9 µM; in the assay with SNB-75 CNS, over 86.9 µM; in the assay with HCT-15 colon, over 100 µM; in the assay with K-562 leukemia, over 78 µM.

Regarding `CSc1nnc(SCc2nn3c(=O)cc(C)nc3s2)s1`, the TGI in the assay on COLO 205 colon, in the assay on PC-3 prostate, in the assay on T-47D breast, with U251 CNS, with HCC-2998 colon and in the assay with MDA-MB-435 was over 100 µM throughout. Besides, the TGI in the assay on SK-OV-3 ovarian, in the assay with SNB-75 CNS, with HCT-15 colon and in the assay on K-562 leukemia was over 100 µM in each case.

Turning to `O=c1[nH]c2ccccc2c(O)c1/C=N/C(=S)NC1CCCCC1`, the TGI in the assay with COLO 205 colon, with PC-3 prostate, in the assay with T-47D breast, in the assay with U251 CNS, in the assay on HCC-2998 colon and in the assay with MDA-MB-435 was over 100 µM throughout. Moreover, the TGI in the assay on SK-OV-3 ovarian, in the assay on SNB-75 CNS, in the assay with HCT-15 colon and in the assay on K-562 leukemia was over 100 µM in each case.

`CCOC(=O)CCc1cn2cc(Br)nc(OC)c2n1`: the TGI was over 100 µM with COLO 205 colon; over 100 µM with PC-3 prostate; over 100 µM in the assay with T-47D breast; over 100 µM in the assay on U251 CNS; over 100 µM in the assay with HCC-2998 colon; 26 µM with MDA-MB-435. In addition, the TGI in the assay with SK-OV-3 ovarian, with SNB-75 CNS, with HCT-15 colon and in the assay on K-562 leukemia was over 100 µM each time.

As for `COc1cccc2c1OC1c3ccccc3OCC1(O)C2` (centres undefined), the TGI in the assay on COLO 205 colon, in the assay with PC-3 prostate, in the assay with T-47D breast, with U251 CNS, with HCC-2998 colon and with MDA-MB-435 was over 100 µM each time. The TGI in the assay on SK-OV-3 ovarian, in the assay on SNB-75 CNS, in the assay with HCT-15 colon and with K-562 leukemia was over 100 µM each time.

`c1ccc2c(Nc3ncco3)cccc2c1`: the TGI with COLO 205 colon, with PC-3 prostate, in the assay on T-47D breast, in the assay with U251 CNS, in the assay on HCC-2998 colon and in the assay with MDA-MB-435 was over 10 µM in each case. Also, the TGI in the assay on SK-OV-3 ovarian, with SNB-75 CNS, in the assay with HCT-15 colon and in the assay on K-562 leukemia was over 10 µM in each case.

For the compound `O=c1[nH]nc(-c2ccccc2)c2[nH]c3c(c12)Cc1ccccc1-3`, the TGI in the assay with COLO 205 colon is over 34.4 µM; with PC-3 prostate, over 100 µM; in the assay on T-47D breast, over 100 µM; with U251 CNS, over 100 µM; with HCC-2998 colon, over 100 µM; with MDA-MB-435, 37.3 µM. The TGI in the assay on SK-OV-3 ovarian is over 100 µM; with SNB-75 CNS it was over 43.3 µM; with HCT-15 colon, over 100 µM; with K-562 leukemia it was over 100 µM.

Values taken from PubChem BioAssay (NCI).
